Source: PubChem BioAssay AID1963980 (Molecular Pharmacology Branch, DTP, NCI, 2024)

System: 475296-252-R-J1-PDC spheroid viability
Assay: Anticancer human tumor 475296-252-R-J1-PDC patient-derived rectal carcinoma cell line growth inhibition [PI3K]
Conditions: spheroids with HUVEC and MSC; for IC50: curve of first compound; for viability, T/C: stronger effect = lower value
Source text: Combinatorial screen of targeted agents with the PI3K inhibitors inavolisib, alpelisib, duvelisib, and copanlisib in multi-cell type tumor spheroids
A high-throughput screen of multi-cell type tumor spheroids was designed to identify active combinations of targeted small molecules and PI3K pathway inhibitors. Complex spheroids include a stromal component modeled by human endothelial cells (HUVEC) and fibroblasts modeled by human mesenchymal stem cells (MSCs). The concentration ranges selected for each drug and investigational agent were based upon clinically achievable concentrations if the clinical Cmax of the agent was known.
Compounds. The drugs and investigational agents: inavolisib (NSC800729), alpelisib (NSC765974), duvelisib (NSC772469), copanlisib (NSC816437), ipatasertib (NSC767898), afuresertib (NSC778305), talazoparib (NSC767125), sapanisertib (NSC764658), selumetinib (NSC741078), tovorafenib (DAY101, NSC766906), vemurafenib (NSC761431), ravoxertinib (NSC781343), sotorasib (NSC818433), MRTX1133 (NSC 836407), abemaciclib (NSC 768073), palbociclib (NSC758247), venetoclax (NSC 766270), SY5609 (NSC837396), enzalutamide (NSC755605), and darolutamide (NSC825331), were obtained from the National Cancer Institute (NCI) Developmental Therapeutics Program Chemical Repository. The FDA-approved anticancer drug set is available from the NCI Developmental Therapeutics Program. […] The stock solutions were prepared in dimethyl sulfoxide (DMSO, Sigma-Aldrich, St. Louis, MO, cat. D2650) at 800-fold the tested concentration and stored at -70 degrees C prior to their use. All drugs and investigational agents were tested over a range starting from a high concentration at or near the clinical Cmax and decreasing in half-log increments. If the clinical Cmax for an agent had not been determined, the highest concentration tested was 10 microM.
Cell Culture. All cells were maintained in an incubator at 37 degrees C and 5% CO2 with 95% humidity. The PDC lines were cultured according to standard operating procedures established by the NCI PDMR (https://pdmr.cancer.gov/sops/default.htm). All PDCs were thawed and cultured in Matrigel-coated flasks prepared with a working solution of 1X Ham's F-12 nutrient mix, without supplementation (Invitrogen, Waltham, MA, cat. 11765054), 100 U/mL penicillin-streptomycin (Invitrogen, cat. 15140122), and 2.5% Matrigel (Corning Inc., Corning, NY, cat. 354248) for the first three passages. The 354836-022-R-J1-PDC, 475296-252-R-J1-PDC, and 997726-040-R-J2-PDC lines were cultured in 6A media, which includes advanced DMEM/F-12 (Thermo Fisher Scientific, cat. 12634028), 10 mM HEPES (Thermo Fisher Scientific, cat. 15630080), 1X GlutaMAX supplement (Thermo Fisher Scientific, cat. 35050061), 0.1 mg/mL primocin (InvivoGen, San Diego, CA, cat. ant-pm-2), 10% defined fetal bovine serum, heat inactivated (HyClone Laboratories Inc., Logan, UT, cat. SH30070.03HI), 50% L-WRN conditioned media (ATCC, cat. CRL-3276), 1.25 mM N-Acetyl-L-cysteine (Sigma-Aldrich, cat. A9165), 10 mM nicotinamide (Sigma-Aldrich, cat. N0636), 1X B-27 supplement (Thermo Fisher Scientific, cat. 17504044), 1X N-2 supplement (Thermo Fisher Scientific, cat. 17502048), and 10 microM Y-27632 dihydrochloride (Tocris Bioscience, Bristol, United Kingdom, cat. 1254). The 624824-186-R-J2-PDC line was cultured in 6C/Colon 1B media, which includes all 6A media components plus 50 ng/mL human EGF recombinant protein (Thermo Fisher Scientific, cat. PHG0311). […]

[1] = second compound 0.00316 µM, first compound 0.0316 µM
[2] = second compound 0.00316 µM, first compound 0.1 µM
[3] = second compound 0.00316 µM, first compound 0.316 µM
[4] = second compound 0.00316 µM, first compound 1 µM
[5] = second compound 0.00316 µM, first compound 3.16 µM
[6] = second compound 0.00316 µM, first compound 10 µM
[7] = second compound 0.01 µM, first compound 0.0316 µM
[8] = second compound 0.01 µM, first compound 0.1 µM
[9] = second compound 0.01 µM, first compound 0.316 µM
[10] = second compound 0.01 µM, first compound 1 µM
[11] = second compound 0.01 µM, first compound 3.16 µM
[12] = second compound 0.01 µM, first compound 10 µM
[13] = second compound 0.0316 µM, first compound 0.0316 µM
[14] = second compound 0.0316 µM, first compound 0.1 µM
[15] = second compound 0.0316 µM, first compound 0.316 µM
[16] = second compound 0.0316 µM, first compound 1 µM
[17] = second compound 0.0316 µM, first compound 3.16 µM
[18] = second compound 0.0316 µM, first compound 10 µM
[19] = second compound 0.1 µM, first compound 0.0316 µM
[20] = second compound 0.1 µM, first compound 0.1 µM
[21] = second compound 0.1 µM, first compound 0.316 µM
[22] = second compound 0.1 µM, first compound 1 µM
[23] = second compound 0.1 µM, first compound 3.16 µM
[24] = second compound 0.1 µM, first compound 10 µM
[25] = second compound 0.316 µM, first compound 0.0316 µM
[26] = second compound 0.316 µM, first compound 0.1 µM
[27] = second compound 0.316 µM, first compound 0.316 µM
[28] = second compound 0.316 µM, first compound 1 µM
[29] = second compound 0.316 µM, first compound 3.16 µM
[30] = second compound 0.316 µM, first compound 10 µM
[31] = second compound 1 µM, first compound 0.0316 µM
[32] = second compound 1 µM, first compound 0.1 µM
[33] = second compound 1 µM, first compound 0.316 µM
[34] = second compound 1 µM, first compound 1 µM
[35] = second compound 1 µM, first compound 3.16 µM
[36] = second compound 1 µM, first compound 10 µM
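Also: spheroids exposed to agents for seven days before readout.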

For `CC1(C)CCC(CN2CCN(c3ccc(C(=O)NS(=O)(=O)c4ccc(NCC5CCOCC5)c([N+](=O)[O-])c4)c(Oc4cnc5[nH]ccc5c4)c3)CC2)=C(c2ccc(Cl)cc2)C1` + CC(Nc1ccc2c(c1)OCCn1cc(N3C(=O)OCC3C(F)F)nc1-2)C(N)=O, the IC50 (second compound 0.00316 µM) was greater than 10 µM, the IC50 (second compound 0.01 µM) was greater than 10 µM and the IC50 (second compound 0.0316 µM) was greater than 10 µM. For the same molecule, the IC50 (second compound 0.1 µM) was greater than 10 µM, the IC50 (second compound 0.316 µM) was greater than 10 µM and the IC50 (second compound 1 µM) was greater than 10 µM. For the same molecule, the viability, T/C [1] was 109%, the viability, T/C [2] was 94.4% and the viability, T/C [3] was 92.3%. It also gave a viability, T/C [4] of 87.3%, a viability, T/C [5] of 86.3% and a viability, T/C [6] of 84.2%. For the same molecule, the viability, T/C [7] was 92.4%, the viability, T/C [8] was 85.5% and the viability, T/C [9] was 101%. It also gave a viability, T/C [10] of 83.2%, a viability, T/C [11] of 93% and a viability, T/C [12] of 74.5%. It also gave a viability, T/C [13] of 95.5%, a viability, T/C [14] of 96% and a viability, T/C [15] of 94.3%. It also gave a viability, T/C [16] of 96.2%, a viability, T/C [17] of 96.9% and a viability, T/C [18] of 77.2%. The viability, T/C [19] was 87.7%, the viability, T/C [20] was 96.1% and the viability, T/C [21] was 87%. For the same molecule, the viability, T/C [22] was 97.1%, the viability, T/C [23] was 90.4% and the viability, T/C [24] was 73.7%. The viability, T/C [25] was 85.2%, the viability, T/C [26] was 83.8% and the viability, T/C [27] was 93.9%. It also gave a viability, T/C [28] of 88.3%, a viability, T/C [29] of 81.2% and a viability, T/C [30] of 74.1%. For the same molecule, the viability, T/C [31] was 93.7%, the viability, T/C [32] was 82.3% and the viability, T/C [33] was 85.8%. For the same molecule, the viability, T/C [34] was 89.6%, the viability, T/C [35] was 82.6% and the viability, T/C [36] was 72.8%.
`C[C@@H](NC(=O)c1ncnc(N)c1Cl)c1ncc(C(=O)Nc2cc(C(F)(F)F)c(Cl)cn2)s1` + CC(Nc1ccc2c(c1)OCCn1cc(N3C(=O)OCC3C(F)F)nc1-2)C(N)=O showed an IC50 (second compound 0.00316 µM) greater than 10 µM, an IC50 (second compound 0.01 µM) greater than 10 µM and an IC50 (second compound 0.0316 µM) greater than 10 µM. The IC50 (second compound 0.1 µM) was greater than 10 µM, the IC50 (second compound 0.316 µM) was greater than 10 µM and the IC50 (second compound 1 µM) was greater than 10 µM. It also gave a viability, T/C [1] of 98.9%, a viability, T/C [2] of 84% and a viability, T/C [3] of 99.5%. It also gave a viability, T/C [4] of 108%, a viability, T/C [5] of 93.8% and a viability, T/C [6] of 90%. It also gave a viability, T/C [7] of 95%, a viability, T/C [8] of 76% and a viability, T/C [9] of 103%. It also gave a viability, T/C [10] of 103%, a viability, T/C [11] of 108% and a viability, T/C [12] of 89%. It also gave a viability, T/C [13] of 80.3%, a viability, T/C [14] of 102% and a viability, T/C [15] of 100%. For the same molecule, the viability, T/C [16] was 116%, the viability, T/C [17] was 96.7% and the viability, T/C [18] was 79.3%. For the same molecule, the viability, T/C [19] was 90.3%, the viability, T/C [20] was 93.1% and the viability, T/C [21] was 102%. It also gave a viability, T/C [22] of 93.8%, a viability, T/C [23] of 103% and a viability, T/C [24] of 69%. It also gave a viability, T/C [25] of 87.7%, a viability, T/C [26] of 85.9% and a viability, T/C [27] of 91.7%. The viability, T/C [28] was 93.6%, the viability, T/C [29] was 84.5% and the viability, T/C [30] was 76.6%. It also gave a viability, T/C [31] of 77.7%, a viability, T/C [32] of 84.6% and a viability, T/C [33] of 95.4%. It also gave a viability, T/C [34] of 93%, a viability, T/C [35] of 83% and a viability, T/C [36] of 63.6%.
